In US20110130397A1, “PYRROLINONE COMPOUNDS AS INHIBITORS OF BACTERIAL PEPTIDYL TRNA HYDROLASE AND USES THEREOF” (priority 2006, published 2011) one finds melting point data, which are given here for 44 compounds.

Molecules are shown by their SMILES. Some results are limits rather than exact numbers.

In turn, `CCc1ccc2nc(N3C(=O)C(O)=C(C(=O)c4ccc(C)o4)C3c3ccccc3)sc2c1` (centres unmarked) [Compound 130] came in with a melting point of 204 to 206 °C.
Turning to `CCc1ccc2nc(N3C(=O)C(O)=C(C(=O)c4ccc(C)o4)C3c3ccc(F)cc3)sc2c1` (centres unmarked) [Compound 131], the melting point was in the range of 222 to 225 °C.
To `CCc1ccc2nc(N3C(=O)C(O)=C(C(=O)c4ccc(C)o4)C3c3ccc(OC)cc3)sc2c1` (centres unmarked) [Compound 132] belongs 192 to 194 °C.
As for `CCc1ccc2nc(N3C(=O)C(O)=C(C(=O)c4ccc(C)o4)C3c3ccc(Cl)cc3)sc2c1` (centres unmarked) [Compound 133], the figure is 236 to 238 °C; as for `CCc1ccc2nc(N3C(=O)C(O)=C(C(=O)c4ccc(C)o4)C3c3ccc(Cl)c(Cl)c3)sc2c1` (centres unmarked) [Compound 134], 197 to 201 °C.
For the compound `CCc1ccc2nc(N3C(=O)C(O)=C(C(=O)c4ccc(C)o4)C3c3ccc(C(C)C)cc3)sc2c1` (centres unmarked) [Compound 135], the melting point was 220 to 222 °C.
As for `CCc1ccc2nc(N3C(=O)C(O)=C(C(=O)c4ccc(C)o4)C3c3cccc(Cl)c3)sc2c1` (centres unmarked) [Compound 136], the figure is 174 to 177 °C.
`CCc1ccc2nc(N3C(=O)C(O)=C(C(=O)c4ccc(C)o4)C3c3ccc(C(F)(F)F)cc3)sc2c1` (centres unmarked) [Compound 137] gave a melting point of 138 to 140 °C.
To `CCc1ccc2nc(N3C(=O)C(O)=C(C(=O)c4ccc(C)o4)C3c3ccccc3F)sc2c1` (centres unmarked) [Compound 138] belongs 165 to 169 °C; to `Cc1ccc(C(=O)C2=C(O)C(=O)N(c3nc4ccc(Cl)cc4s3)C2c2cccc([N+](=O)[O-])c2)o1` (centres unmarked) [Compound 139], over 300 °C.
To `COc1ccc2nc(N3C(=O)C(O)=C(C(=O)c4ccc(C)o4)C3c3ccccc3F)sc2c1` (centres unmarked) [Compound 151] belongs 268 to 269 °C.
In turn, `Cc1ccc(C(=O)C2=C(O)C(=O)N(c3nc4ccc([N+](=O)[O-])cc4s3)C2c2ccccc2F)o1` (centres unmarked) [Compound 152] came in with a melting point of 255 to 257 °C.
`COc1ccc2nc(N3C(=O)C(O)=C(C(=O)c4ccc(C)o4)C3c3ccco3)sc2c1` (centres unmarked) [Compound 153] displayed a melting point of 240 to 242 °C.
In the case of `COC(=O)c1cccc(C2C(C(=O)c3ccc(C)o3)=C(O)C(=O)N2c2nc3ccc(OC)cc3s2)c1` (centres unmarked) [Compound 154], the melting point is 250 to 252 °C.
Turning to `COc1ccc2nc(N3C(=O)C(O)=C(C(=O)c4ccc(C)o4)C3c3cccc(O)c3)sc2c1` (centres unmarked) [Compound 155], the melting point lay within 263 to 264 °C.
As to `COc1ccc2nc(N3C(=O)C(O)=C(C(=O)c4ccc(C)o4)C3c3ccc(OC)c(O)c3)sc2c1` (centres unmarked) [Compound 156], the melting point is 241 to 242 °C.
For `COc1ccc2nc(N3C(=O)C(O)=C(C(=O)c4ccc(C)o4)C3c3ccccn3)sc2c1` (centres unmarked) [Compound 157], the melting point was in the range of 240 to 241 °C.
`COc1ccc2nc(N3C(=O)C(O)=C(C(=O)c4ccc(C)o4)C3c3cccnc3)sc2c1` (centres unmarked) [Compound 158]: the melting point is 291 to 292 °C.
As to `CC(=O)c1sc(N2C(=O)C(O)=C(C(=O)c3ccc(C)o3)C2c2ccccc2F)nc1C` (centres unmarked) [Compound 159], the melting point fell in the range of 244 to 245 °C.
As to `Cc1ccc(C(=O)C2=C(O)C(=O)N(c3nc4cc(Cl)ccc4o3)C2c2ccccc2F)o1` (centres unmarked) [Compound 160], the melting point lay within 244 to 245 °C.
To `Cc1ccc(C(=O)C2=C(O)C(=O)N(c3ncc(C)s3)C2c2ccccc2F)o1` (centres unmarked) [Compound 161] belongs 251 to 252 °C; to `Cc1ccc(C(=O)C2=C(O)C(=O)N(c3nc4c(O)ncnc4[nH]3)C2c2ccccc2F)o1` (centres unmarked) [Compound 162], over 350 °C; to `Cc1ccc(C(=O)C2=C(O)C(=O)N(c3nc4ccccc4s3)C2c2ccccc2F)o1` (centres unmarked) [Compound 163], 253 to 254 °C.
For `Cc1ccc(C(=O)C2=C(O)C(=O)N(Cc3nn[nH]n3)C2)o1` [Compound 178], the melting point was 233 to 234 °C.
To `Cc1ccc(C(=O)C2=C(O)C(=O)N(c3nc4ccc(S(C)(=O)=O)cc4s3)C2C2CCCCC2)o1` (centres unmarked) [Compound 179] belongs 208 to 209 °C.
To `Cc1ccc(C(=O)C2=C(O)C(=O)N(c3nc4ccc(S(C)(=O)=O)cc4s3)C2C2CCOC2)o1` (centres unmarked) [Compound 180] belongs 199 to 200 °C; to `CCCCCC1C(C(=O)c2ccc(C)o2)=C(O)C(=O)N1c1nc2ccc(S(C)(=O)=O)cc2s1` (centres unmarked) [Compound 181], 171 to 173 °C; to `CCOc1ccc2nc(N3C(=O)C(O)=C(C(=O)c4ccc(C)o4)C3c3ccccc3)sc2c1` (centres unmarked) [Compound 182], 247 to 248 °C.
Turning to `CCOc1ccc2nc(N3C(=O)C(O)=C(C(=O)c4ccc(C)o4)C3c3ccccc3F)sc2c1` (centres unmarked) [Compound 183], the melting point lay within 251 to 252 °C.
As for `CCOc1ccc2nc(N3C(=O)C(O)=C(C(=O)c4ccc(C)o4)C3c3cccc([N+](=O)[O-])c3)sc2c1` (centres unmarked) [Compound 184], the melting point fell in the range of 256 to 257 °C.
To `CCOc1ccc2nc(N3C(=O)C(O)=C(C(=O)c4ccc(C)o4)C3C3CCCCC3)sc2c1` (centres unmarked) [Compound 185] belongs 166 to 167 °C; to `CCOc1ccc2nc(N3C(=O)C(O)=C(C(=O)c4ccc(C)o4)C3c3cccc(OCc4ccccc4)c3)sc2c1` (centres unmarked) [Compound 186], 214 to 215 °C.
As for `CCCCOc1ccc(C2C(C(=O)c3ccc(C)o3)=C(O)C(=O)N2c2nc3ccc(OCC)cc3s2)cc1` (centres unmarked) [Compound 187], the figure is 191 to 192 °C; as for `Cc1ccc(C(=O)C2=C(O)C(=O)N(c3ncccn3)C2c2ccccc2F)o1` (centres unmarked) [Compound 188], 249 to 250 °C; as for `Cc1ccc(C(=O)C2=C(O)C(=O)N(c3ccncn3)C2c2ccccc2F)o1` (centres unmarked) [Compound 189], 235 to 236 °C.
As for `CCOc1ccc2nc(N3C(=O)C(O)=C(C(=O)c4ccc(C)o4)C3C3CCOC3)sc2c1` (centres unmarked) [Compound 190], the figure is 185 to 186 °C.
`Cc1ccc(C(=O)C2=C(O)C(=O)N(c3ncnc4c3ncn4C3OC(CO)C(O)C3O)C2c2ccccc2F)o1` (centres unmarked) [Compound 217] showed a melting point of 106 to 109 °C.
To `Cc1ccc(C(=O)C2=C(O)C(=O)N(c3ncnc4[nH]ncc34)C2c2ccccc2F)o1` (centres unmarked) [Compound 218] belongs 256 to 258 °C.
To `Cc1ccc(C(=O)C2=C(O)C(=O)N(c3ncnc4[nH]cnc34)C2c2ccccc2F)o1` (centres unmarked) [Compound 219] belongs 170 to 173 °C.
As for `CCOc1ccc2nc(N3C(=O)C(O)=C(C(=O)c4ccc(C)o4)C3c3cccc(C#N)c3)sc2c1` (centres unmarked) [Compound 220], the figure is 226 to 227 °C; as for `CCOc1ccc2nc(N3C(=O)C(O)=C(C(=O)c4ccc(C)o4)C3c3ccc(O)c(O)c3)sc2c1` (centres unmarked) [Compound 221], 259 to 260 °C.
`CCOc1ccc2nc(N3C(=O)C(O)=C(C(=O)c4ccc(C)o4)C3c3cccc(F)c3)sc2c1` (centres unmarked) [Compound 222] displayed a melting point of 248 to 249 °C.
As for `CCOc1ccc2nc(N3C(=O)C(O)=C(C(=O)c4ccc(C)o4)C3c3cccc(O)c3)sc2c1` (centres unmarked) [Compound 223], the melting point lay in the range of 254 to 255 °C.
To `Cc1ccc(C(=O)C2=C(O)C(=O)N(c3ncnc4[nH]cnc34)C2c2cccc([N+](=O)[O-])c2)o1` (centres unmarked) [Compound 224] belongs 266 to 267 °C.
